The target in one assay is T1, GluE1αA m3 variant (Trichoplax adhaerens, UniProt B3SAW0, F306Y/I236T/S234G).
T1 sequence (B3SAW0 1-341 S234G/I236T/F306Y): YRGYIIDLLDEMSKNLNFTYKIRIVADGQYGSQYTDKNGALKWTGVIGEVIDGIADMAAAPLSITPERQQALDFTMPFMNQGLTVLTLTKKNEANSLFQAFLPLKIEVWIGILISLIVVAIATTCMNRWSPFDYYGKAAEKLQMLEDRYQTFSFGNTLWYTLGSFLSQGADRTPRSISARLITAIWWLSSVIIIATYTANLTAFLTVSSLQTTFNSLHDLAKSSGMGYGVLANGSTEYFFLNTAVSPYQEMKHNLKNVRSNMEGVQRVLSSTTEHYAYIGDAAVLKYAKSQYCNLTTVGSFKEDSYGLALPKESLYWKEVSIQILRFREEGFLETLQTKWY
The note with it: 10 mM glutamate.

For assay [1], the target named is T2, GluE1αA wildtype receptor (Trichoplax adhaerens, UniProt B3SAW0).
T2 sequence (B3SAW0 1-341): T1 sequence (B3SAW0 1-341 S234G/I236T/F306Y) with G234S, T236I, Y306F
As to conditions: wild type, 10 mM glycine.

Assay [2] has as its system GluE1αA m1 variant (F732Y). It counts as cell-based, Trichoplax adhaerens. As to conditions: m1; ligand 10 mM; normalized to glycine. An excerpt: (§1) As noted, a model has been put forward that defines iGluR ligand specificity based on a set of key amino acids in the LBD of iGluRs[11]. […] To the best of our knowledge, whether these few positions are indeed solely responsible for ligand specificity, and moreover, can be altered to switch specificity for natural ligands, has not been experimentally tested. […] We also created a triple mutant, with an additional phenylalanine to tyrosine mutation at position 732 (F732Y; m3 variant), to make the T. adhaerens epsilon receptor resemble GluN2A and GluA2 receptors from human, reasoning that this mutation might enhance glutamate sensitivity. We also generated a single F732Y mutant (m1 variant), to assess the contribution of this amino acid to ligand specificity in isolation.
(§2) The cDNA of the T. adhaerens GluE1αA receptor was cloned into the mammalian expression vector pIRES2-EGFP, using a 5’ nested primer that inserted a mammalian consensus Kozak sequence of […] (Supplementary Table 5). Several mutants/variants of this receptor where also prepared via site directed mutagenesis using standard procedures and primers listed in Supplementary Table 5. For electrophysiological comparisons, we commissioned GenScript (USA) to synthesize the cDNA of the human GluA2 […] receptor (NCBI accession number NP_001077088.2), which was cloned into the pIRES2-EGFP vector with a Kozak sequence flanking the start codon and restriction enzymes SalI and BamHI at the 5’ and 3’ ends of the cDNA, respectively. Receptor cDNAs in the various pIRES2 constructs were transfected into Chinese Hamster Ovary-K1 (CHO-K1; Sigma) cells cultured in Dulbecco’s Modified Eagle Medium Nutrient Mixture F-12 (DMEM/F12) supplemented with 10% Fetal Bovine Serum (FBS) and 1% penicillin-streptomycin at 37°C. Transfections were done with 2 μg of plasmid vector using the transfecting reagent PolyJet^TM (SignaGen Laboratories, USA) according to the manufacturer’s instructions and plated onto glass coverslips in 35 mm dishes the next day. Transfected cells were incubated at 28°C for 2 to 4 days, then coverslips were transferred to a new 60 mm dish with 5 mL of external recording solution. […] Agonists and pharmacological compounds used in this study were dissolved in corresponding external solutions. […] Patch pipettes were pulled using a P-1000 micropipette puller (Sutter, USA), from thick-walled borosilicate tubing (1.5 and 0.86 outer and inner diameter, respectively), to a resistance of between 1 and 6 megaohms.

Assay [3] concerns GluE1αA m3 variant (S653G, I655T, F732Y). It is filed as cell-based, Trichoplax adhaerens. As to conditions: for normalized peak inward current, Avg / normalized peak inward current, single recording / normalized current (dose response), Avg / normalized current (dose response), single recording: m3.
Excerpt: as §1, §2

Assay [4] relates to GluE1αA m2 variant (S653G, I655T). It counts as cell-based, Trichoplax adhaerens. As to conditions: for normalized peak inward current, Avg / normalized peak inward current, single recording / normalized current (dose response), Avg / normalized current (dose response), single recording: m2.
Excerpt: as §1, §2

Assay [5] addresses T. adhaerens GluE1αA receptor (wildtype) (Trichoplax adhaerens, UniProt B3SAW0). Description: whole-cell patch clamp, agonist-evoked currents in CHO-K1 cells. It is filed as cell-based. As to conditions: for activation of ligand-gated current: ligand tested on its own at 10 mM; for normalized peak inward current, Avg / normalized peak inward current, single recording: wild type. In general terms: In patch-clamp work, channel activity is measured electrically.

[6] abbreviates: ligand 10 mM, normalized to glutamate.
Where [7] appears, read: ligand 10 mM, normalized to glycine.

Changes are numbered by the printed parent chain. Where “and” joins values, the source holds several entries; their conditions need not be identical. Equal entries are not always repeated. Where two headings read alike, the source gives them in different places.

T. adhaerens GluE1αA receptor (wildtype), sequence (B3SAW0 entry or part of it): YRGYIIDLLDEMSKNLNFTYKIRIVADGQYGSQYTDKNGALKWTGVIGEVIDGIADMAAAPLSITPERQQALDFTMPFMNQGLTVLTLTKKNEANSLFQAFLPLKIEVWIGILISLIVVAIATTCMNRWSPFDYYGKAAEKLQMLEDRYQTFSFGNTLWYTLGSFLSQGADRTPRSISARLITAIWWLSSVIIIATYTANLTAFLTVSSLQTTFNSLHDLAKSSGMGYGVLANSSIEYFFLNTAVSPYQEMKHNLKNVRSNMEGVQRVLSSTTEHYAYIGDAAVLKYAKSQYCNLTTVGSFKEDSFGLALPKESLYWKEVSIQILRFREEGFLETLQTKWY

Turning to `N#Cc1cc2[nH]c(=O)c(=O)[nH]c2cc1[N+](=O)[O-]` [CNQX, 6-cyano-7-nitroquinoxaline-2,3-dione], the “current normalized to peak amplitude in the absence of CNQX, Avg” value at GluE1αA m3 variant (CNQX 1 µM) is reported as 1.22; at GluE1αA m3 variant (CNQX 10 µM), 0.42; on GluE1αA m3 variant (CNQX 100 µM), 0.08; in assay [1] (CNQX 1 µM), 0.99; in assay [1] (CNQX 10 µM), 0.86; in assay [1] (CNQX 100 µM), 0.29. Further, the “current normalized to peak amplitude in the absence of CNQX, single recording” value at GluE1αA m3 variant (CNQX 1 µM) is 1.09 and 1.17 and 1.15 and 0.98 and 1.22 and 1.35 and 1.57; at GluE1αA m3 variant (CNQX 10 µM) it was 0.44 and 0.38 and 0.42 and 0.52 and 0.35; in assay [1] (CNQX 1 µM), 1.07 and 0.91 and 0.98 and 1.00 and 1.01 and 0.97 and 0.94; in assay [1] (CNQX 10 µM), 0.80 and 0.79 and 0.93 and 0.89 and 0.85 and 0.87.

`N[C@H](CO)C(=O)O` [D-serine]: the “normalized peak inward current, Avg” value stood at 0.76 in assay [2], 0.19 in assay [3] (setting [6]), 0.06 in assay [4] (setting [6]) and 0.95 in assay [5] (setting [7]). For the same compound, the “normalized peak inward current, single recording” value in assay [2] is 0.75 and 0.83 and 0.85 and 0.77 and 0.60; in assay [4] (setting [6]), 0.0548 and 0.0529 and 0.07 and 0.06 and 0.05; in assay [5] (setting [7]), 0.93 and 1.00 and 0.86 and 0.89. Also, the “activation of ligand-gated current” value in assay [5] is “activated”. For the same compound, the “normalized current (dose response), Avg” value in assay [5] (wildtype, ligand 0.03 mM) is reported as 0.0178; in assay [5] (wildtype, ligand 0.10 mM), 0.20; in assay [5] (wildtype, ligand 0.30 mM), 0.78; in assay [5] (wildtype, ligand 1.00 mM), 0.97. Moreover, the “normalized current (dose response), single recording” value was 0.63 and 0.81 and 0.90 and 0.84 and 0.69 and 0.70 in assay [5] (wildtype, ligand 0.30 mM); 1.00 and 0.99 and 0.87 and 0.90 in assay [5] (wildtype, ligand 1.00 mM). In assay [5] (wildtype, monophasic dose-response fit of normalized whole-cell current), this compound yielded an EC50 of 190 ± 40 µM.

Take `N[C@@H](CCC(=O)O)C(=O)O` [glutamate]: the “normalized peak inward current, Avg” value amounted to 0.02 in assay [2]; 1.00 in assay [3] (agonist 1 mM); 1.00 in assay [3] (setting [6]); 0.76 in assay [4] (agonist 1 mM); 1.00 in assay [4] (setting [6]); 0.0035 in assay [5] (agonist 1 mM). For the same compound, the “normalized peak inward current, Avg” value in assay [5] (setting [7]) worked out at 0.00871. Also, the “normalized peak inward current, single recording” value was 1.03 and 1.05 and 1.08 and 0.95 and 0.92 and 0.91 in assay [3] (agonist 1 mM, listed as Glu); 1.00 in assay [3] (setting [6]); 0.74 and 0.64 and 0.71 and 0.87 and 0.80 in assay [4] (agonist 1 mM, listed as Glu); 1.00 in assay [4] (setting [6]). The “normalized current (dose response), Avg” value is 0.02 in assay [3] (glutamate 0.1 mM); 0.16 in assay [3] (glutamate 0.3 mM); 0.88 in assay [3] (glutamate 1 mM); 0.95 in assay [3] (glutamate 3 mM); 0.0181 in assay [4] (glutamate 0.3 mM); 0.22 in assay [4] (glutamate 1 mM). In addition, the “normalized current (dose response), Avg” value amounted to 0.76 in assay [4] (glutamate 3 mM) and 0.98 in assay [4] (glutamate 10 mM). Besides, the “normalized current (dose response), single recording” value was 0.14 and 0.12 and 0.11 and 0.13 and 0.20 and 0.16 and 0.19 in assay [3] (glutamate 0.3 mM); 0.97 and 0.78 and 0.74 and 0.89 and 0.95 and 0.87 and 0.86 and 0.96 in assay [3] (glutamate 1 mM); 0.98 and 0.83 and 1.00 and 0.87 in assay [3] (glutamate 3 mM); 0.14 and 0.22 and 0.25 and 0.19 and 0.27 in assay [4] (glutamate 1 mM); 0.66 and 0.88 and 0.67 and 0.63 and 0.98 and 0.72 in assay [4] (glutamate 3 mM); 1.00 and 0.98 and 0.92 in assay [4] (glutamate 10 mM). The EC50 in assay [3] (m3 variant, dose response of normalized current) is 610 ± 60 µM; in assay [4] (m2 variant, dose response of normalized current) it was 1810 ± 200 µM. Besides, the sensitivity to agonist result in assay [4] (m2 variant, 1 mM) is “robust responses”. Moreover, the “activation of ligand-gated current” value in assay [5] is “no responses”.

Consider `CC(C)[C@H](N)C(=O)O` [valine], for which the “normalized peak inward current, Avg” value in assay [2] was 0.0347; in assay [3] (setting [6]), 0.0123; in assay [4] (setting [6]) it was 0.00917; in assay [5] (setting [7]) it was 0.35. The “activation of ligand-gated current” value in assay [5] was “weakly”. Besides, the “normalized current (dose response), Avg” value in assay [5] (wildtype, ligand 0.30 mM) worked out at 0.0282; in assay [5] (wildtype, ligand 1.00 mM), 0.32; in assay [5] (wildtype, ligand 3.00 mM), 0.83; in assay [5] (wildtype, ligand 10.00 mM), 1.00; in assay [5] (wildtype, ligand […]), 0.56. Moreover, the “normalized current (dose response), single recording” value in assay [5] (wildtype, ligand 3.00 mM) is 0.85 and 0.78 and 0.82 and 0.89 and 0.92 and 0.71 and 0.81 and 0.88; in assay [5] (wildtype, ligand 10.00 mM) it was 1.00.

Regarding `N[C@@H](CO)C(=O)O` [L-serine], the “normalized peak inward current, Avg” value in assay [2] is reported as 1.05; in assay [3] (setting [6]), 0.07; in assay [4] (setting [6]) it was 0.20; in assay [5] (setting [7]), 0.94. Also, the “normalized peak inward current, single recording” value in assay [2] is 1.18 and 1.01 and 1.00 and 1.05; in assay [4] (setting [6]), 0.17 and 0.18 and 0.24 and 0.27; in assay [5] (setting [7]), 1.00 and 0.98 and 0.94 and 0.78 and 0.93 and 0.97. The “activation of ligand-gated current” value in assay [5] is given as “activated”. For the same compound, the “normalized current (dose response), Avg” value is reported as 0.017 in assay [5] (wildtype, ligand 0.03 mM); 0.35 in assay [5] (wildtype, ligand 0.10 mM); 0.95 in assay [5] (wildtype, ligand 0.30 mM); 1.00 in assay [5] (wildtype, ligand 1.00 mM); 0.63 in assay [5] (wildtype, ligand […]). Besides, the “normalized current (dose response), single recording” value in assay [5] (wildtype, ligand 0.30 mM) was 1.00 and 0.97 and 0.95 and 0.77 and 0.99; in assay [5] (wildtype, ligand 1.00 mM) it was 0.99 and 1.00 and 0.98.

A word on the EC50: it is the concentration needed to bring the measured effect to its halfway point. Low values mean an effect from little substance, high ones a need for much substance.

For the origin of these results see PMC12226733, “Evolution of iGluR ligand specificity, polyamine regulation, and ion selectivity inferred from a placozoan epsilon receptor” (Communications Biology, 2025).
